Source: paper PMC8042727, “Apoptosis-like cell death upon kinetoplastid induction by compounds isolated from the brown algae Dictyota spiralis” (Parasites & Vectors, 2021)

Legend:
Type in all cases: cell-based
[1] = tested on: Leishmania amazonensis promastigotes; assay: Mitochondrial membrane potential (JC-1); settings: L. amazonensis, IC90, 24 h, relative to negative control
Experimental: Promastigotes of L. amazonensis (2 × 10^6 cells/ml) and epimastigotes (5 × 10^5cells/ml) of T. cruzi were incubated for 24 h in the presence of the compounds to be tested, at IC90 and 26 °C, following which the cells were centrifuged, resuspended and transferred to black bottom 96-well plate. A 10-μl aliquot of JC-1 reagent (JC-1 Mitochondrial Membrane Potential Assay Kit; Cayman Chemical, Ann Arbor, MI, USA) was added to each well and the plates were incubated for 30 min. The switch of fluorescence from red to green emitted by both forms of the dye (monomer and aggregate) was measured using the Enspire microplate reader (PerkinElmer) at excitation/emission wavelengths of 560/595 and 485/535 for red and green, respectively; the decrease of the ratio was calculated as the percentage relative to the negative control. Cells images were captured using the Evos cell imaging system (Thermo Fisher Scientific), which is a fully integrated digital inverted microscope, at a magnification of ×40 and ×100. Untreated cells are used as the negative control, and miltefosine and benznidazole were used as the positive control.
Disruption of mitochondrial functions induced by the incubation of L. amazonensis and T. cruzi with compounds 1–3 was evaluated using the mitochondrial membrane potential as a measure. JC-1 dye was used in this assay. In the case of normal mitochondrial membrane potential, the reactive dye will form aggregates that emit red fluorescence; a collapsed potential induces the monomeric form with green fluorescence. This parameter is expressed as the absolute red/green ratio of fluorescence. We considered the values of the negative controls to be the normal values, and therefore the collapse of mitochondrial membrane potential is expressed as a percentage (see Fig. 4a). This parameter is involved in energy storage and is an important indicator of cell health and viability.

[2] = Cytotoxicity on macrophages (AlamarBlue, 24 h); settings: mouse, J774A.1 macrophages, J774A.1, 24 h, read-out: CC50: murine macrophages
Experimental: Cytotoxicity of the tested molecules was evaluated after 24 h using macrophages of the murine cell line J774.A1 (American Type Culture Collection #TIB-67). The cells were maintained in DMEM medium at 37 °C in a 5% CO2 humidified incubator. The viability of the macrophages was determined with the AlamarBlue assay and the emitted fluorescence was assayed in an Enspire microplate reader (PerkinElmer Inc.) at 570/585 nm. Briefly, 50 µl of macrophages was placed in a 96-well flat bottom plate at a density of 2 × 10^5/ml in RPMI medium supplemented with 10% FBS without phenol. Cells were allowed to adhere for 15 min, and their progress was checked using a Leika inverted microscope (Leika Camera AG, Wetzlar, Germany). At the same time, a serially dilution of the test compounds was made in a deep 96-well plate with the same medium, and then 50 µl of each serially diluted molecule was added to each well of the 96-well flat bottom plate. Finally, 10% of AlamarBlue was added to each well. The plates were incubated at 37 °C in 5% CO2 for 24 h. Dose–response curves were plotted and the 50% cytotoxic concentrations (CC50) were obtained. The analyses were performed in triplicate.

[3] = tested on: Trypanosoma cruzi epimastigotes (Y strain); assay: In vitro evaluation on T. cruzi epimastigotes (AlamarBlue, 72 h); settings: for IC50: 72 h, read-out: IC50: epimastigote; for IC90: nonlinear regression of AlamarBlue curve, read-out: IC90 Trypanosoma cruzi: epimastigote
Experimental: Experiments including in vitro activity assays of isolated compounds 1–3 were performed against the promastigote and amastigote stages of Leishmania amazonensis (MHOM/BR/77/LTB0016) and the epimastigote stage of Trypanosoma cruzi (Y strain). Promastigotes of L. amazonensis were cultured in Schneider’s medium (Sigma-Aldrich, St. Louis, MO, USA). Typanosoma cruzi strain Y was cultured in liver Infusion tryptose (LIT) medium. The three molecules 1-3 were tested against epimastigotes of T. cruzi. Briefly, the molecules were dissolved in DMSO in 96-well plates and a serially diluted concentration was made in 100 μl of LIT medium supplemented with 10% heat-inactivated FBS. In all tests, a maximum of 1% DMSO was used to dissolve the highest dose of the compounds without inducing any effects on the parasites; epimastigotes in the logarithmic growth phase were then counted, adjusted to 5 × 10^5 cells/ml, distributed on the previous 96-well plate and incubated at 27 °C for 72 h. The plate was observed under an inverted microscope after 72 h of incubation and analyzed statistically as described for the leishmanicidal test. Hoechst dye is a blue-fluorescent dye that stains condensed chromatin of apoptotic cells. To detect DNA condensation, the chromatin condensation/dead cell apoptosis kit was used (Invitrogen, Thermo Fisher Scientific, Waltham, MA, USA). Cells were incubated in the presence of the compounds to be tested at IC90. The IC90 values were determined using nonlinear regression of the AlamarBlue® curve. After 24 h of incubation, cells were harvested and resuspended in medium, following which 1 μl of Hoechst 33342 stock solution was added to parasites and incubated for 20 min. Results were analyzed by cell imaging using the Evos FL cell imaging system (Thermo Fisher Scientific). The experiments were repeated using a double-stain apoptosis detection kit (Hoechst 33342/PI; Thermo Fisher Scientific). […] A positive control was also tested: miltefosine (L. amazonensis) and benznidazole (T. cruzi).

Row | IC50 [3] [µM] | IC90 [3] [µM] | Structure (SMILES) | decrease in mitochondrial potential [1] [%] | CC50 at 24 h [2] [µM]
1 | 18.3 ± 0.91 | 104 | C=C1CC[C@@H]([C@@](C)(O)CCC=C(C)C)[C@@H](O)[C@@H]2C(C)=CC[C@@H]12 [Compound 2, dictyol E] | 40.7 | 52.1 ± 6.63
2 | 35.3 ± 4.09 | 140 | C=C(C)[C@H]1CC[C@]2(C)C[C@@H]3O[C@@]3(C)CC/C=C(\C)CC[C@@H]12 [Compound 3, 3,4-epoxy-7,18-dolabelladiene] | > 80 | 69.98 ± 0.13
3 | 13.1 ± 3.62 | 75.4 | CC(C)=CCC[C@](C)(O)[C@@H]1CC[C@@H](C)[C@@H]2CC=C(C)[C@H]2[C@@H]1O [Compound 1, pachydictyol C] | 34.0 | 37 ± 2.74
